# Data taken from US20100108083A1, “USE OF MEANS FOR TRAPPING CO2 IN A FILTER FOR PREVENTING INFLAMMATION, CANCER AND CARDIOVASCULAR DISEASES IN A SUBJECT EXPOSED TO TOBACCO SMOKE” (priority 2007, published 2010).
# Legend:
# BALB/c mice [1] = conditions: CO2 of tobacco smoke selectively trapped by the filter, 38 minutes inhalation
# Protocol: The experiment was conducted on BALB/c mice aged from 6 to 7 weeks under in vivo conditions. The number of mice used was 32 males, divided into four groups of eight. […] Each experiment lasted 38 minutes, or typically the equivalent of the consumption of 5 cigarettes by a smoker.
# The mice were sacrificed after inhalation of air for 38 minutes in the four situations described above (see also the commentary of FIG. 3) and the lungs were removed immediately for analysis.
# The lungs were analysed in order to measure the activity or the secretion of six proteins that are known markers of inflammation. […] These proteins are as follows: RANTES, IL-6, TNF-alpha, MIP-2, PP2A and NE-κB p65. […] Measurements of activity or of relative concentration of these proteins were performed using the following commercial kits: Mouse TNF-alpha/TNFSF1A DuoSet (ELISA assay for the concentration of TNF-alpha); Mouse CXCL2/MIP-2 DuoSet (ELISA assay for the concentration of MIP-2), Mouse CCL5/RANTES ELISpot Kit (ELISpot assay for the secretion of RANTES); Mouse IL-6 ELISpot Kit (ELISpot assay for the secretion of IL-6), all from R&D Systems (Minneapolis, Minn., USA).
# BALB/c mice [2] = assay: Plethysmography (Penh value) of mice breathing air enriched in CO2; type: in vivo
# Protocol: 1/ BALB/c mice were placed in a closed chamber in which the proportion of CO2, at constant proportion of oxygen, was raised artificially to 2 (atmospheric air control), 5, 10 and 15% by injection of CO2 into the chamber every other minute. At each of these concentrations, non-invasive functional testing was carried out on the mice by plethysmography, according to the technique described by Hamelmann et al. (1997) Am J Respir Crit Care Med 156: 766-775). This technique involves assessing the respiratory distress of the mice by determining the Penh (enhanced pause) value.
# β-catenin = assay: ELISA of β-catenin in the nucleus of pulmonary cells of mice after CO2 inhalation; type: in vivo; conditions: inhaled air with CO2 content above 10%, without decrease in oxygen, versus atmospheric air
# Protocol: (§1) 2/After keeping the mice for 10 minutes in the chambers at the various concentrations of CO2 stated above, the mice were sacrificed (one hour after the start of the experiment) in order to determine the proteins β-catenin and NF-κBp65 in the nucleus of their pulmonary cells.
# (§2) These two proteins are recognized markers of inflammation and of cancer. They were determined on the basis of optical density using specialized kits. β-Catenin was determined by ELISA (Catenin Enzyme Immunoassay Kit, Assay designs, Ann Arbor, Mich.) following the manufacturer's instructions. The protein NF-κB p65 was determined by another ELISA assay (TrasAM NF-κB p65 nuclear DNA based ELISA, Active Motif, Rixensart, Belgium) following the manufacturer's instructions. The values obtained, presented in the diagram in FIG. 2, are expressed relative to the total amount of proteins extracted from the cell nucleus.
# NF-κB p65 = assay: ELISA of NF-κB p65 in the nucleus of pulmonary cells of mice after CO2 inhalation; type: in vivo; conditions: inhaled air with CO2 content above 10%, without decrease in oxygen, versus atmospheric air
# Protocol: as §1, §2
Structure (SMILES),Inflammation found in mice exposed to tobacco smoke (BALB/c mice [1]),"Penh value, level relative to control (BALB/c mice [2]; 15% CO2 in inhaled air at constant proportion of oxygen, versus atmospheric air control)",Change of Penh value (BALB/c mice [2]; proportion of CO2 changes from 10 to 15%),Expression of β-catenin in lung tissues (β-catenin),Expression of NF-κBp65 in lung tissues (NF-κB p65)
"[K+].[OH-] [KOH solution, potassium hydroxide]",eliminated partially or even completely,–,–,–,–
"O=C=O [CO2, carbon dioxide]",–,6 times,doubled,very significant increase,very significant increase
